The record followed here is patent publication EP0001978A1, “A derivative of thiazolidine-4-carboxylic acid, method for the preparation and pharmaceutical compositions comprising the compound” (Santen Pharmaceutical Co., Ltd, priority 1977, dated 1979).

For series [1], the target named is T1, angiotensin I-converting enzyme (Cavia porcellus, UniProt H0UWL7).
T1 construct: Preparation of isolated guinea-pig ileum was made and suspended in the organ bath; from tissue; host or cells: isolated guinea-pig ileum
T1 sequence (H0UWL7 33-1302): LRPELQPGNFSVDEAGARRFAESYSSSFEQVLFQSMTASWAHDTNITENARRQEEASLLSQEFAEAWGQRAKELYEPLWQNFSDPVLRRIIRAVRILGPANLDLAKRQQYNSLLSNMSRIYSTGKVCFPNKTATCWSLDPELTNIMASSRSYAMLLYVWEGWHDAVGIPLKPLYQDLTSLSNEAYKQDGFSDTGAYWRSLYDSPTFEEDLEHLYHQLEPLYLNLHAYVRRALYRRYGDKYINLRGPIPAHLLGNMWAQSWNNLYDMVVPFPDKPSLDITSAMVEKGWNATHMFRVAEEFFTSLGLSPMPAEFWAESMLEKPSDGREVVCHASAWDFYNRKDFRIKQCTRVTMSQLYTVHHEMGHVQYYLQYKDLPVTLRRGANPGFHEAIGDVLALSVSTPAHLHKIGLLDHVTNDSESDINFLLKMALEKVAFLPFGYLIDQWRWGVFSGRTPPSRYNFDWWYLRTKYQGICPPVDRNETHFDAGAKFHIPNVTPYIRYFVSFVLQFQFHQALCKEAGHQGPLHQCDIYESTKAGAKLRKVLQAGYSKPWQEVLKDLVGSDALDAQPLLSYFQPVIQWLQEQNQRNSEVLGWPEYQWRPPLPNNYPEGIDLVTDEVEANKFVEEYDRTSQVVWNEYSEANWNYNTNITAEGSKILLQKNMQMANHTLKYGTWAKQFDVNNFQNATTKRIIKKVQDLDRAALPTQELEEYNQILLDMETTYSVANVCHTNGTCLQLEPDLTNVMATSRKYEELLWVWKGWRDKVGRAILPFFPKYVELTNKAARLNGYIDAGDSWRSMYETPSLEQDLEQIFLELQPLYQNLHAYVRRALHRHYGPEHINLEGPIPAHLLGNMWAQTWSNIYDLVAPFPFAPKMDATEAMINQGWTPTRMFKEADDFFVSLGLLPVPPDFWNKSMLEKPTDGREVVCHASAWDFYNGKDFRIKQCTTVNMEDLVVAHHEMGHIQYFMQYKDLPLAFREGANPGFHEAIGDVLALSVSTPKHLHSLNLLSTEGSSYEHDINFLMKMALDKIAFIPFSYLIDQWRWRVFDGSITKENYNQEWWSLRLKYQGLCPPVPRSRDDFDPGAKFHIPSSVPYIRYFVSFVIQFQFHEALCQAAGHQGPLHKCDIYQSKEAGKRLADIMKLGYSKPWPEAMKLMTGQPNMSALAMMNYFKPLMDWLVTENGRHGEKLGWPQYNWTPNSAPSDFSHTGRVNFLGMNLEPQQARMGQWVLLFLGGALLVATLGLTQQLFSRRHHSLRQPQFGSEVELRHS
Nature of the series: Bioassay: contractile response of isolated guinea-pig ileum to angiotensin I. It counts as cell-based. As to conditions: angiotensin I 0.125µg/ml, compound added 5 minutes before; for inhibition at 1 µM: final concentration 10^-6 M. The procedure:
In the present study, we adopted the bioassay for contractile response of iselated guinea-pig ileum to angiotensin I.
(§1) Measurement of inhibitory activity of angiotensin I-converting enzyme Preparation of isolated guinea-pig ileum was made and suspended in the organ bath containing 20ml of Tyrode's solution gassed 95% 02 + 5% CO2 at 30°C. The contraction induced by angiotensin I (0.125µg/ml) given at intervals of 10 minutes was recorded on a recticerder (Nihon Koden) for 90 seconds using FD pick up (ST-IT-H, Nihon Koden) .
(§2) The test compounds were added to the bath 5 minutes before the addition of angiotensin I.
The inhibitory activity of angiotensin I-converting enzyme was calculated by the following formula: [formula] • A: Contractile intensity of angiotensin I before addition of the compound • B: Contractile intensity of angiotensin I after addition of the compound

For the next series, the system named is male ddy-SLC strain rats. Nature of the series: Acute toxicity test (Miller and Tainter method). Type of series: in vivo. As to conditions: oral, subcutaneous or intravenous; 30% suspension or 30% solution (pH 7.0); result in words. The procedure:
Acute toxicity of the compound of this invention, (4R)-3-[(2S)-3-mercapto-2-methylpropanoyl]-4-thiazolidinecarboxylic acid, is shown in Table 3.
The male ddy-SLC strain rats (5 weeks of age, weighing […]) were placed in a breeding room of constant temperature and humidity (24+1°C, 55+5%) and fed freely pellet diet (CE-2, Clea Japan Inc.) and water for a week. The rats showing the normal growth were selected for the experiment.
30% suspension or 30% solution (pH 7.0) was administered orally, subcutaneously or intravenously and the toxicity was calculated by the Miller and Tainter method.

A further series deals with T2, kininase II (Cavia porcellus, UniProt H0UWL7).
T2 construct: Preparation of isolated guinea-pig ileum was made and suspended in the organ bath; from tissue; host or cells: isolated guinea-pig ileum
T2 sequence (H0UWL7 33-1302): T1 sequence (H0UWL7 33-1302)
The series is described as follows: Augmentation of contractile response of isolated guinea-pig ileum to bradykinin. It counts as cell-based. The method, then: as §1, §2
(§3) The influence of the compounds on the contractile response of isolated guinea-pig ileum to angiotensin II was examined in the same manner as above. Further, augmentation of the contractile response to bradykinin by the test compounds was studied by the above-mentioned method from the fact that kininase II which destroys bradykinin is thought to be identical with angiotensin I-converting enzyme.

The subject of the next series is angiotensin II. The series is described as follows: Contractile response of isolated guinea-pig ileum to angiotensin II. Type of series: cell-based. As to conditions: Cavia porcellus, final concentration 10^-5 M. The method, then:
as §1, §2, §3

With `C[C@H](CS)C(=O)N1CSC[C@H]1C(=O)O` [Compound A, (4R)-3-[(2S)-3-mercapto-2-methylpropanoyl]-4-thiazolidinecarboxylic acid], the inhibition at 1 µM in series [1] stood at 72.6%. Also, the inhibition at 0.1 µM in series [1] (final concentration 10^-7 M) turned out to be 38.1%. In the series on male ddy-SLC strain rats, the Acute toxicity entry is recorded as “lower toxicity”. Moreover, the “Augmentation to BK (%)” value was found to be 125.3% on kininase II (final concentration 10^-7 M), 60.4% at kininase II (final concentration 10^-8 M) and 22.1% on kininase II (final concentration 10^-9 M). Besides, the inhibition at 10 µM in the series with angiotensin II was found to be 0%.

As to `C[C@@H](CS)C(=O)N1CSC[C@H]1C(=O)O` [Compound B, (4R)-3-[(2R)-3-mercapto-2-methylpropanoyl]-4-thiazolidinecarboxylic acid, reference compound], the results for the inhibition at 10 µM (in series [1] (final concentration 10^-5 M); in the series on angiotensin II) were 59.3% and 0%, respectively. The compound further registered an inhibition at 1 µM in series [1] of 24.7%. Also, the “Augmentation to BK (%)” value on kininase II (final concentration 10^-7 M) was 78.3%; on kininase II (final concentration 10^-8 M), 16.8%.

The term inhibition denotes the percentage by which the read-out fell short of the control. A lower inhibition goes with a response near the control.
